± gives the expanded uncertainty stated by the source.
Conditions: 101.33 kPa, Liquid; for speed of sound: Sing-around technique in a fixed-path interferometer; for mass density: Vibrating tube method

| speed of sound (298.15 K) [m/s] | mass density (298.15 K) [kg/m3] | speed of sound (303.15 K) [m/s] | mass density (303.15 K) [kg/m3] | speed of sound (308.15 K) [m/s] | mass density (308.15 K) [kg/m3] | speed of sound (313.15 K) [m/s] | mass density (313.15 K) [kg/m3] | speed of sound (318.15 K) [m/s] | mass density (318.15 K) [kg/m3] | speed of sound (323.15 K) [m/s] | mass density (323.15 K) [kg/m3] | Structure (SMILES) |
| --- | --- | --- | --- | --- | --- | --- | --- | --- | --- | --- | --- | --- |
| 1380 ± 3 | 826.36 ± 0.24 | 1363 ± 3 | 822.88 ± 0.24 | 1346 ± 3 | 819.43 ± 0.24 | 1329 ± 3 | 815.97 ± 0.24 | 1312 ± 3 | 812.49 ± 0.24 | 1296 ± 3 | 809.03 ± 0.24 | CCCCCCCCCCO [decan-1-ol] |
| 1349 ± 3 | 821.74 ± 0.26 | 1332 ± 3 | 818.26 ± 0.26 | 1315 ± 3 | 814.76 ± 0.26 | 1299 ± 3 | 811.24 ± 0.26 | 1282 ± 3 | 807.69 ± 0.26 | 1265 ± 3 | 804.12 ± 0.26 | CCCCCCCCO [octan-1-ol] |
